# Data published in US6737383B1, “Herbicidal oxadiazolidines” (priority 1999, dated 2004).
# Experiments:
# [1] = system: bedstraw; assay: Test B pre/postemergence bedstraw; type: in vivo, Galium aparine
# Summary of the method: (§1)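 Herbicidal effect was estimated by eye on a ten-point control scale after plants spent twelve to sixteen days in a greenhouse following soil or foliar treatment. Foliar sprays targeted plants at one to four leaves; all doses were formulated in a non-phytotoxic solvent with surfactant.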
# [2] = system: blackgrass; assay: Test B pre/postemergence blackgrass; type: in vivo, Alopecurus myosuroides
# Summary of the method: as §1
# [3] = system: surinam grass; assay: Test B pre/postemergence surinam grass; type: in vivo, Brachiaria decumbens
# Summary of the method: as §1
# [4] = system: cocklebur; assay: Test B pre/postemergence cocklebur; type: in vivo, Xanthium strumarium
# Summary of the method: as §1
# [5] = system: corn; assay: Test B pre/postemergence corn; type: in vivo, Zea mays
# Summary of the method: as §1
# [6] = system: crabgrass; assay: Test B pre/postemergence crabgrass; type: in vivo, Digitaria sanguinalis
# Summary of the method: as §1
# [7] = system: giant foxtail; assay: Test B pre/postemergence giant foxtail; type: in vivo, Setaria faberii
# Summary of the method: as §1
# [8] = system: morningglory; assay: Test B pre/postemergence morningglory; type: in vivo, Ipomoea hederacea
# Summary of the method: as §1
# [9] = system: pigweed; assay: Test B pre/postemergence pigweed; type: in vivo, Amaranthus retroflexus
# Summary of the method: as §1
# [10] = system: rape; assay: Test B pre/postemergence rape; type: in vivo, Brassica napus
# Summary of the method: as §1
# [11] = system: soybean; assay: Test B pre/postemergence soybean; type: in vivo, Glycine max
# Summary of the method: as §1
# [12] = system: sugar beet; assay: Test B pre/postemergence sugar beet; type: in vivo, Beta vulgaris
# Summary of the method: as §1
# [13] = system: velvetleaf; assay: Test B pre/postemergence velvetleaf; type: in vivo, Abutilon theophrasti
# Summary of the method: as §1
# [14] = system: wheat; assay: Test B pre/postemergence wheat; type: in vivo, Triticum aestivum
# Summary of the method: as §1
# [15] = system: wild oat; assay: Test B pre/postemergence wild oat; type: in vivo, Avena fatua
# Summary of the method: as §1
# [16] = system: purple nutsedge; assay: Test B pre/postemergence purple nutsedge; type: in vivo, Cyperus rotundus
# Summary of the method: as §1
# [17] = Postemergence, Rate 31 g/ha, visual rating, scale 0 to 10 (0 no effect, 10 complete control)
# [18] = Postemergence, Rate 125 g/ha, scale 0 to 10, 0 is no effect, 10 is complete control
# [19] = Postemergence, Rate 250 g/ha, scale 0 to 10, 0 is no effect, 10 is complete control
# [20] = Preemergence, Rate 31 g/ha, visual rating, scale 0 to 10 (0 no effect, 10 complete control)
# [21] = Preemergence, Rate 62 g/ha, scale 0 to 10 (0 no effect, 10 complete control)
# [22] = Preemergence, Rate 250 g/ha, scale of 0 to 10 where 0 is no effect and 10 is complete control
# [23] = Rate 62 g/ha, Postemergence, scale of 0 to 10 where 0 is no effect and 10 is complete control
structure (smiles),measurement,setting,value
CC(C)N(C(=O)n1oc(=O)n(C2(C)CC2)c1=O)c1ccc(F)cc1 [Compound 362],Bedstraw plant response rating,[1]; [17],5
same,"Plant response rating, Bedstraw",[1]; [18],9
same,"Plant response rating, Bedstraw",[1]; [19],9
same,Bedstraw plant response rating,[1]; [20],8
same,"Plant response rating, Bedstraw",[1]; [21],9
same,Bedstraw plant response rating (0 to 10 scale),"[1]; Preemergence, Rate 125 g/ha",9
same,Bedstraw plant response rating,[1]; [22],10
same,Bedstraw plant response rating,[1]; [23],5
same,Blackgrass plant response rating,[2]; [17],8
same,"Plant response rating, Blackgrass",[2]; [18],8
same,"Plant response rating, Blackgrass",[2]; [19],8
same,Blackgrass plant response rating,[2]; [20],8
same,"Plant response rating, Blackgrass",[2]; [21],9
same,Blackgrass plant response rating (0 to 10 scale),"[2]; Preemergence, Rate 125 g/ha",10
same,Blackgrass plant response rating,[2]; [22],10
same,Blackgrass plant response rating,[2]; [23],8
same,B. signalgrass plant response rating,[3]; [17],1
same,"Plant response rating, B. signalgrass",[3]; [18],5
same,"Plant response rating, B. signalgrass",[3]; [19],7
same,B. signalgrass plant response rating,[3]; [20],2
same,"Plant response rating, B. signalgrass",[3]; [21],4
same,"B. signalgrass plant response rating (0 to 10 scale, 0 is no effect, 10 is complete control)","[3]; Preemergence, Rate 125 g/ha",6
same,B. signalgrass plant response rating,[3]; [22],7
same,B. signalgrass plant response rating,[3]; [23],2
same,Cocklebur plant response rating,[4]; [17],0
same,"Plant response rating, Cocklebur",[4]; [18],0
same,Cocklebur plant response rating,[4]; [20],0
same,"Plant response rating, Cocklebur",[4]; [21],0
same,Cocklebur plant response rating (0 to 10 scale),"[4]; Preemergence, Rate 125 g/ha",0
same,Cocklebur plant response rating,[4]; [22],0
same,Cocklebur plant response rating,[4]; [23],0
same,Corn plant response rating,[5]; [17],0
same,"Plant response rating, Corn",[5]; [18],0
same,"Plant response rating, Corn",[5]; [19],0
same,Corn plant response rating,[5]; [20],0
same,"Plant response rating, Corn",[5]; [21],0
same,Corn plant response rating (0 to 10 scale),"[5]; Preemergence, Rate 125 g/ha",3
same,Corn plant response rating,[5]; [22],9
same,Corn plant response rating,[5]; [23],0
same,Crabgrass plant response rating,[6]; [17],3
same,"Plant response rating, Crabgrass",[6]; [18],6
same,"Plant response rating, Crabgrass",[6]; [19],6
same,"Plant response rating, Crabgrass",[6]; [21],5
same,Crabgrass plant response rating (0 to 10 scale),"[6]; Preemergence, Rate 125 g/ha",8
same,Crabgrass plant response rating,[6]; [22],8
same,Crabgrass plant response rating,[6]; [23],3
same,Giant foxtail plant response rating,[7]; [17],5
same,"Plant response rating, Giant foxtail",[7]; [18],8
same,"Plant response rating, Giant foxtail",[7]; [19],9
same,"Plant response rating, Giant foxtail",[7]; [21],10
same,Giant foxtail plant response rating (0 to 10 scale),"[7]; Preemergence, Rate 125 g/ha",10
same,Giant foxtail plant response rating,[7]; [22],10
same,Giant foxtail plant response rating,[7]; [23],6
same,Morningglory plant response rating,[8]; [17],0
same,"Plant response rating, Morningglory",[8]; [18],1
same,"Plant response rating, Morningglory",[8]; [19],1
same,"Plant response rating, Morningglory",[8]; [21],0
same,Morningglory plant response rating (0 to 10 scale),"[8]; Preemergence, Rate 125 g/ha",4
same,Morningglory plant response rating,[8]; [22],6
same,Morningglory plant response rating,[8]; [23],1
same,Redroot pigweed plant response rating,[9]; [17],0
same,"Plant response rating, Redroot pigweed",[9]; [18],4
same,"Plant response rating, Redroot pigweed",[9]; [19],6
same,"Plant response rating, Redroot pigweed",[9]; [21],8
same,Redroot pigweed plant response rating (0 to 10 scale),"[9]; Preemergence, Rate 125 g/ha",10
same,Redroot pigweed plant response rating,[9]; [22],10
same,Redroot pigweed plant response rating,[9]; [23],2
same,Rape plant response rating,[10]; [17],0
same,"Plant response rating, Rape",[10]; [18],0
same,"Plant response rating, Rape",[10]; [19],0
same,"Plant response rating, Rape",[10]; [21],0
same,Rape plant response rating (0 to 10 scale),"[10]; Preemergence, Rate 125 g/ha",3
same,Rape plant response rating,[10]; [22],6
same,Rape plant response rating,[10]; [23],0
same,Soybean plant response rating,[11]; [17],4
same,"Plant response rating, Soybean",[11]; [18],5
same,"Plant response rating, Soybean",[11]; [19],6
same,"Plant response rating, Soybean",[11]; [21],0
same,Soybean plant response rating (0 to 10 scale),"[11]; Preemergence, Rate 125 g/ha",1
same,Soybean plant response rating,[11]; [22],6
same,Soybean plant response rating,[11]; [23],4
same,Sugarbeets plant response rating,[12]; [17],0
same,"Plant response rating, Sugarbeets",[12]; [18],0
same,"Plant response rating, Sugarbeets",[12]; [19],2
same,"Plant response rating, Sugarbeets",[12]; [21],5
same,Sugarbeets plant response rating (0 to 10 scale),"[12]; Preemergence, Rate 125 g/ha",7
same,Sugarbeets plant response rating,[12]; [22],8
same,Sugarbeets plant response rating,[12]; [23],0
same,Velvetleaf plant response rating,[13]; [17],0
same,"Plant response rating, Velvetleaf",[13]; [18],4
same,"Plant response rating, Velvetleaf",[13]; [19],7
same,"Plant response rating, Velvetleaf",[13]; [21],4
same,Velvetleaf plant response rating (0 to 10 scale),"[13]; Preemergence, Rate 125 g/ha",6
same,Velvetleaf plant response rating,[13]; [22],6
same,Velvetleaf plant response rating,[13]; [23],1
same,Wheat plant response rating,[14]; [17],0
same,"Plant response rating, Wheat",[14]; [18],4
same,"Plant response rating, Wheat",[14]; [19],6
same,"Plant response rating, Wheat",[14]; [21],7
same,Wheat plant response rating (0 to 10 scale),"[14]; Preemergence, Rate 125 g/ha",8
same,Wheat plant response rating,[14]; [22],8
same,Wheat plant response rating,[14]; [23],2
same,Wild oats plant response rating,[15]; [17],0
same,"Plant response rating, Wild oats",[15]; [18],6
same,"Plant response rating, Wild oats",[15]; [19],6
same,"Plant response rating, Wild oats",[15]; [21],7
same,Wild oats plant response rating (0 to 10 scale),"[15]; Preemergence, Rate 125 g/ha",10
same,Wild oats plant response rating,[15]; [22],10
same,Wild oats plant response rating,[15]; [23],3
same,Nutsedge plant response rating,[16]; [17],0
same,"Plant response rating, Nutsedge",[16]; [18],0
same,"Plant response rating, Nutsedge",[16]; [19],0
same,"Plant response rating, Nutsedge",[16]; [21],0
same,Nutsedge plant response rating (0 to 10 scale),"[16]; Preemergence, Rate 125 g/ha",0
same,Nutsedge plant response rating,[16]; [22],3
same,Nutsedge plant response rating,[16]; [23],0
